We go through 88 compounds from a melting point compilation (Tetko et al.; mined from patent text by program, amines drawn as free bases though some values may be those of a salt).

`C=C1CCc2sccc2C1=O`: the melting point (usually the temperature of the solid-liquid transition) was in the range of 47 to 49 °C.

`CCOC(=O)C1=C(C)NC(C=O)=C(C(=O)OCC)C1c1cccc(O)c1` (stereo not drawn) displayed a melting point of 142 °C.

Consider `COc1ccc(/C=N/Nc2nc(=O)[nH]cc2F)cc1`, for which the melting point lay in the range of 202 to 208 °C.

With `O=C1CCC(N2Cc3c(OCc4ccc(CN5Cc6ccccc6C5)cc4)cccc3C2=O)C(=O)N1` (stereo not drawn), the melting point lay in the range of 153 to 155 °C.

Take `CC(c1ccc(F)cc1)n1ncc(-c2ccc(S(C)(=O)=O)cc2)c(-c2ccc(F)cc2)c1=O` (stereo not drawn): the melting point was in the range of 162 to 164 °C.

In the case of `C=CCc1cc2c(cc1O)C(C)(C)C(O)O2` (stereo not drawn), the melting point fell in the range of 66 to 67 °C.

In the case of `COc1ccc(CCOc2ccc(NC(=O)N(C)OC)cc2)cc1`, the melting point lay within 100 to 101 °C.

The compound `O=C(NCCCCN1CCC(c2cccc3ccccc23)CC1)c1ccc(NC(=O)c2ccc(Cl)cc2)cc1` yielded a melting point of 264 °C.

The compound `CN1CC[C@@H](c2c(O)cc(O)c3c(=O)cc(-c4ccccc4F)oc23)[C@@H]1CO` registered a melting point of 206 to 208 °C.

`CCCCC1NC(/C=C(\Cc2cccs2)C(=O)O)=CN1Cc1ccc(C(=O)O)c(-c2ccccc2)c1` (stereo not drawn) came in with a melting point of 158 to 161 °C.

Regarding `COC(=O)c1cc(N)ccc1Oc1ccccc1`, the melting point was in the range of 154 to 156 °C.

Consider `COC[C@H](C1CC1)n1cc(Cl)nc(Cl)c1=O`, for which the melting point lay in the range of 110 to 111 °C.

Take `COc1c(O)cc2oc(-c3ccccc3)cc(=O)c2c1O`: the melting point lay within 203 to 204 °C.

Regarding `O=C(Nc1ccccc1)c1cccc([N+](=O)[O-])c1`, the melting point was in the range of 153 to 154 °C.

The compound `CC(=O)CN1CCc2c(c(=O)oc3cc(C)c(N)cc23)C1` gave a melting point of 196 to 198 °C.

In turn, `COc1ccc(C2=NN(CCCCOc3ccc(C4=NNC(=O)CC4C)c(F)c3F)C(=O)C2(C)C)c2cc(C(F)(F)F)sc12` (stereo not drawn) gave a melting point of 137 to 138 °C.

`NC(=O)c1nc(Cl)sc1Cl`: the melting point was found to be 153 °C.

The compound `CC(=O)SCC(Cc1ccccc1)C(=O)Nc1cccc(C(=O)OCc2ccccc2)c1` (stereo not drawn) returned a melting point of 108 to 109 °C.

`CC(C)(C)c1cc(C=C2SCN(C3CC3)C2=O)cc(C(C)(C)C)c1O` showed a melting point of 162 to 164 °C.

In turn, `COC(=O)COc1ccc([N+](=O)[O-])cc1` displayed a melting point of 98 to 99 °C.

Regarding `O[C@@H]1C(Cl)=CCC[C@@H]1O`, the melting point is 111 to 112 °C.

Consider `O=c1cc2c(nn1-c1ccc(Cl)cc1F)CCCC2`, for which the melting point was 104 to 108 °C.

Consider `C[N+](C)([O-])CC#CC1=Cc2ccccc2Sc2ccc(Cl)cc21`, for which the melting point lay within 68 to 69 °C.

`CCCCc1nc2c(N)nc3ccc(OCc4ccccc4)cc3c2n1CCCCNC(=O)N1CCOCC1` displayed a melting point of 177 to 179 °C.

`COc1ccc(-n2nnc(-c3ccc(C(F)(F)F)cc3F)c2N)cc1` displayed a melting point of 165 to 166 °C.

With `O=C(NC1CCN(CCC2CCOc3ccccc32)CC1)c1ccncc1` (stereo not drawn), the melting point was 122 to 123 °C.

On to `COc1cc(C(=O)c2cccnc2)ccc1O`, for which the melting point was 150 to 151 °C.

In turn, `CNC(=O)N(O)C(C)c1ccc(OC)cc1` (stereo not drawn) came in with a melting point of 102 to 104 °C.

Take `CN(CCSc1ccc([N+](=O)[O-])cc1)CCc1ccc([N+](=O)[O-])cc1`: the melting point lay within 56 to 57 °C.

In the case of `CCOC(=O)Nc1ncc(-c2nc3ccccc3c(=O)n2-c2cccc(OC)c2)s1`, the melting point lay in the range of 235 to 236 °C.

Take `C=Cc1ccc(Nc2nc(Cl)nc(Cl)c2Cl)cc1`: the melting point was in the range of 112 to 114 °C.

As to `CN(CCCCCC(=O)O)c1cnc(-c2ccccc2)c(-c2ccccc2)n1`, the melting point lay in the range of 159 to 160 °C.

The compound `CON=C1C(C)(C)c2cc3nc(SCc4ncc(C)c(OC)c4C)[nH]c3cc2C1(C)C` showed a melting point of 110 to 112 °C.

`O=C1NC(N2CCCCCC2)=N/C1=C\c1c[nH]c2ncc(C(F)(F)F)cc12` yielded a melting point of 340 °C.

Compound `CS(=O)(=O)OCCc1c2ccccc2n2c1[nH]c(=O)c1ccccc12` yielded a melting point of 196 to 198 °C.

With `CC(C)(C)c1cc2c(c(C(C)(C)C)c1)OC(=O)C2c1ccc(OCCO)cc1` (stereo not drawn), the melting point is 132 to 135 °C.

`COc1cc(-c2csc(CN(C)C(=O)OC(C)(C)C)n2)cc(OC)c1OC(C)=O` yielded a melting point of 135 to 137 °C.

`Cc1ccc(NC(=S)N2CCC(O)C2)c(C)c1` (stereo not drawn): the melting point was 164 to 166 °C.

Consider `CCCCNS(=O)(=O)C[C@@H](O)C(O)[C@@H](CC1CCCCC1)NC(=O)[C@H](CC(C)C)NC(=O)CCc1ccccc1` (relative stereo), for which the melting point lay within 63 to 73 °C.

As for `Cc1ccc(S(=O)(=O)NC(=O)C(C)(NC=O)C(C)C)cc1` (stereo not drawn), the melting point was 131 to 135 °C.

`CCOC(=O)CN1C(=O)CSC1=Nc1cc(-n2c(=O)cc(C(F)(F)F)n(C)c2=O)c(F)cc1Cl` showed a melting point of 67 to 87 °C.

`CCCn1c(CCOC)nc2c(N)nc3cc(OC4CCOC4)ccc3c21` (stereo not drawn) registered a melting point of 192 to 194 °C.

Turning to `O=C(Cc1cc(F)cc(F)c1)Nc1cccc2nc(N[C@@H]3CCc4ccccc43)ccc12`, the melting point stood at 221 °C.

Regarding `Cc1cc(CCC[C@H](CC(=O)OC(C)(C)C)C(=O)N[C@H](C(=O)O)C(C)(C)C)ccc1-c1ccccc1`, the melting point is 51 to 56 °C.

`COc1c(C)cc2c(c1C)C[C@@H]1c3ccccc3N[C@H]21` (relative stereo) registered a melting point of 117 °C.

For `COC1(OC)CCCCC1N=O` (stereo not drawn), the melting point lay in the range of 108 to 120 °C.

Compound `CCCCc1nc2cncnc2[nH]1` came in with a melting point of 168 °C.

The compound `CC1(Cc2cc3[nH]c(=O)oc3cc2Br)OCCO1` had a melting point of 117 to 119 °C.

Take `Cc1ccc(-c2ccc3c(c2)C=C(C(=O)Nc2ccc(CN(C)C4CCOCC4)cc2)CCO3)cc1`: the melting point lay in the range of 162 to 163 °C.

For `C#CCn1c(-c2ccc(Cl)nc2Cl)nc(OS(=O)(=O)C(F)(F)F)c(OC)c1=O`, the melting point was in the range of 133 to 135 °C.

The compound `CN1C2=NC(C)(C)N(C)C(=O)N2c2ccccc21` registered a melting point of 79 to 82 °C.

The compound `OC1Cc2ccccc2C1O` (stereo not drawn) registered a melting point of 98 to 100 °C.

In turn, `CCOC(=O)C1=C(COCCN=[N+]=[N-])NC(C)=C(C(=O)OC)C1c1cccc(C(F)(F)F)c1Cl` (stereo not drawn) registered a melting point of 143 to 145 °C.

Take `O=C(OCC1OC(n2ccc(=O)[nH]c2=O)CC1OC(=O)c1ccccc1)c1ccccc1` (stereo not drawn): the melting point was 223 to 225 °C.

`COc1cc(CON=C(CCC(=O)O)c2ccccc2)ccc1OCc1nc(-c2ccco2)oc1C` showed a melting point of 131 to 132 °C.

In the case of `Cc1cccc(NC(=S)SCC(=O)C(C)(C)C)n1`, the melting point stood at 80 °C.

Turning to `CC(C)(C)Nc1c(NCc2ccc(OC(F)(F)F)cc2)c(=O)c1=O`, the melting point lay within 292 to 294 °C.

With `COc1cc(C(O)CN(c2nc3ccccc3[nH]2)C(C)CCn2cnc3ccccc32)ccc1OCc1ccccc1` (stereo not drawn), the melting point fell in the range of 170 to 180 °C.

`CC(Br)CN(CC(C)Br)c1c(C(=O)NCCOP(=O)(O)O)cc([N+](=O)[O-])cc1[N+](=O)[O-]` (stereo not drawn) returned a melting point of 157 to 161 °C.

`COc1ccc(C#Cc2ccc(C(=O)O)s2)cc1C12CC3CC(CC(C3)C1)C2` registered a melting point of 244 to 245 °C.

For `CC(=O)Oc1ccc(-c2ccc(C(C)O)cc2)cc1` (stereo not drawn), the melting point was in the range of 142 to 144 °C.

For the compound `Cc1nc(CO)c2n1-c1ccc(Cl)cc1C(c1ccccc1F)=NC2`, the melting point is 233 to 235 °C.

Compound `CC(C)(CCl)C(=O)N(O)Cc1ccccc1Cl` returned a melting point of 108 to 110 °C.

As to `COC(=O)c1cc(C(=O)N2COCC2(C)C)c2cc(Cc3ccc(F)cc3)cnc2c1O`, the melting point lay in the range of 149 to 150 °C.

For `CCCC(=O)Oc1cc(C(C)C)ccc1C1(OC(=O)CCC)C(=O)c2ccccc2C1=O`, the melting point lay within 98 to 102 °C.

Compound `CCCC(C)Oc1ccc(C(=O)O)cc1` (stereo not drawn) returned a melting point of 67 to 68.8 °C.

The compound `C=CCN1C(=O)CN(c2ccc(OCc3ccccc3)cc2)C1=S` had a melting point of 130 °C.

`CCCCCCCC(=O)NNC(=O)N1Cc2ccccc2Oc2ccc(C(F)(F)F)cc21` came in with a melting point of 97 to 100 °C.

Compound `COc1cc(OC)c(-c2cccnc2)cc1/C=C/C(=O)c1ccc(S(N)(=O)=O)cc1` registered a melting point of 253 to 255 °C.

As for `C=C(F)C(C)(C)C(=O)Nc1ccc(Cl)cc1`, the melting point lay within 75 to 76 °C.

On to `CC1C(=O)N(c2ccc(Oc3ccccc3)cc2)C(=S)N1c1ccccc1` (stereo not drawn), for which the melting point amounted to 132 °C.

`CCCn1nc(C)c(NC(C)=O)c1C#N` yielded a melting point of 129 to 131 °C.

In the case of `CCc1nc2c(N)nc3ccccc3c2n1CCCCSC`, the melting point lay in the range of 183 to 186 °C.

In turn, `CCCOc1c(-c2cc(C=CC(=O)O)ccc2O)cc(C(C)(C)C)cc1C(C)(C)C` came in with a melting point of 104 to 106 °C.

Compound `CN1C(=O)CC[C@]2(C)c3ccc(-c4ccc(C#N)cc4)cc3CC[C@@H]12` yielded a melting point of 148 to 150 °C.

With `O=c1[nH]c2cc(Cl)ccc2n(CCO)c1=O`, the melting point stood at 295 °C.

In turn, `CCc1cc(C(C)=O)c(O)cc1OCc1cccc(C(=O)O)c1` showed a melting point of 161 to 164 °C.

The compound `Clc1ccc(Nc2nc3ccccc3o2)c(Cl)c1` yielded a melting point of 98 to 99 °C.

`CC(=O)N1CC2CC2(c2ccccc2)C1` (stereo not drawn) yielded a melting point of 63 to 65 °C.

`COc1cc(C(=O)NC2CCC(N(C)C)CC2)ccc1Nc1ncc2c(n1)N(C1CCCCC1)CC(F)(F)C(=O)N2C` (stereo not drawn) had a melting point of 208 to 214 °C.

Compound `CONC(=O)c1nc(-c2ccc(Cl)c(OC)c2F)cc(N)c1Cl` registered a melting point of 215 to 217 °C.

`CN(C)CCOc1ccccc1-c1cc(NC(N)=O)c(C(N)=O)s1` came in with a melting point of 180 °C.

Regarding `CCCCc1nc(Cl)c(CO)n1Cc1ccc(Oc2ccccc2C(=O)O)cc1`, the melting point is 178 to 180 °C.

Consider `CC(C)(CCC#N)c1ccc(C(=O)Nc2cn3c4c(ccc3n2)OCC4)cc1`, for which the melting point was 227 to 228 °C.

The compound `CCN(CC)CCSCC(=O)c1ccc2[nH]c3ncc(Cl)cc3c2c1` showed a melting point of 137 to 138 °C.

In turn, `CCCCCCC(NS(=O)(=O)c1ccc(Cl)cc1)C(=O)Nc1ccc(CC(=O)OCC)cc1` (racemic) displayed a melting point of 110 to 112 °C.

Turning to `CCOC(=O)CN1CCN(c2cc3c(cc2Cl)c(=O)c(C(=O)O)cn3CC)CC1`, the melting point lay within 230 to 232 °C.

For the compound `COc1ccc(-c2ccc(C=O)cc2)cc1OC1CCCC1`, the melting point is 86.5 to 87.5 °C.
